Measured values as given in PMC7017153, “Assembly of a G-Quadruplex Repair Complex by the FANCJ DNA Helicase and the REV1 Polymerase” (Genes, 2019).
“Also recorded” adds a separate entry of the source. Values belong to the molecule of their own block, whether it stands above or below them. Where no end group is shown, it is not given here. The star is where a group is joined. Biotin = O=C1N[C@H]2[C@H](CS[C@H]2CCCCC(=O)*)N1

Tests used:
[1] = Circular dichroism (CD) of G4 DNA in KCl; type: physicochemical; settings: 20 mM boric acid pH 7.5, 150 mM KCl, 25 °C, 320-220 nm
Method: (§1) CD measurements were collected on a JASCO J-810 spectropolarimeter (JASCO Inc., Easton, MD, USA) equipped with a PTC-423S peltier system. G4 DNA samples were dialyzed into 20 mM Boric Acid pH 7.5, 150 mM KCl (or NaCl). CD spectra were collected from 320 nm to 220 nm at 25 °C. Five traces were obtained for each DNA substrate, and a reference scan of the buffer alone was subtracted from the averaged CD signal.

[2] = Circular dichroism (CD) of G4 DNA in NaCl; type: physicochemical; settings: 150 mM NaCl, 25 °C, 320-220 nm
Method: as §1

[3] = test system: human REV1 CTD (amino acid residues 1157 to 1251); assay: BLI, biotinylated FANCJ PIP peptides with REV1 CTD; type: binding; settings: Buffer H, 25 °C; for BLI binding signal (Δλ), REV1 CTD versus PCNA: 1.3 µM PCNA trimer
From the text: (§2) The pEB022 plasmid used to produce full-length human PCNA protein was kindly provided by Dr. M. Todd Washington (University of Iowa). A codon-optimized construct (VB170525-1265 nra) used to express human REV1 CTD (amino acid residues 1157 to 1251) in E. coli was synthesized by VectorBuilder Inc. (Chicago, IL, USA). Plasmids were transformed into NiCo21(DE3) competent cells from New England Biolabs (Ipswich, MA, USA). Single bacteria colonies were selected on LB agar plates that were supplemented with 50 µg/mL of kanamycin (PCNA) or carbenicillin (REV1 CTD) to inoculate starter cultures in LB broth. Overnight growths were diluted 1:50 into 4 × 1L LB (37 °C, 250 rpm). Protein expression was induced by adding IPTG to 1 mM when the optical density at 600 nm reached 0.4 absorbance units. Cells were cultured overnight at 16 °C. They were harvested 16 h post induction by centrifugation (6000 × g at 4 °C) for 60 min, and the pellets were resuspended in 20 mM NaPi (pH 7.5), 300 mM NaCl, 30 mM imidazole, 1 mM DTT, 5% (v/v) glycerol, 1% NP-40, and 1 mM PMSF.
(§3) BLI assays were performed on a BLItz instrument (Pall Fortébio, Fremont, CA, USA). Streptavidin-coated biosensors were purchased from Pall Fortébio (Lot 1906281). Biosensors were hydrated in Buffer H for 10 min, and the baseline optical interference was recorded. A total of 150 nM of biotinylated G4 DNA or FANCJ PIP peptide was loaded onto the sensors over 2 min, after which they were washed with Buffer H. Binding reactions were initiated by placing the biosensors in analyte solutions at the indicated concentrations. After their interactions had reached an equilibrium, the sensors were returned to buffer to monitor dissociation of the complexes. Experiments were repeated in triplicate. BLI binding isotherms were generated by plotting the plateau values of the association phase versus total analyte concentration. These curves were fit to a 1:1 interaction model, as described above. The parameters reported were obtained from the average and 95% confidence interval of the three data sets.
PIP-containing proteins bind directly to PCNA to coordinate DNA replication and repair. However, it is now evident that noncanonical PIP-boxes can serve as hotspots to recruit other proteins, including the REV1 translesion synthesis polymerase and the MLH1 mismatch repair protein [54, 55, 56, 64]. To test if the PIP-like motif in FANCJ functions as a PIP or an REV1-interacting region (RIR), we compared how this peptide bound to PCNA versus REV1 by BLI. Recombinant human PCNA protein and the C-terminal domain (CTD) of human REV1 were purified from E. coli (Figure S3A). Biotinylated FANCJ PIP was immobilized on a streptavidin-coated biosensor and experiments were performed as described above. […] Because Δλ is related to the thickness of the biolayer, this value reports the accumulation of mass on the sensor tip. […] This difference is further magnified as REV1 CTD has a molecular mass of ~12 kDa, while a human PCNA trimer is about seven times its size, at ~86 kDa. Next, we tested the effects of a FANCJ PIP AA peptide on its interactions with REV1 CTD and PCNA. The consecutive consensus aromatic residues (YF) within the potential PIP-motif were replaced with alanine amino acids (AA). […] BLI experiments with PIP and PIP AA were repeated as a function of REV1 CTD and PCNA concentration to measure their corresponding equilibrium constant values.

full-length human PCNA = assay: BLI, biotinylated FANCJ PIP peptides with PCNA; type: binding; settings: Buffer H, 25 °C; for Binding to PCNA: BLI
From the text: as §2, §3
PIP-containing proteins bind directly to PCNA to coordinate DNA replication and repair. However, it is now evident that noncanonical PIP-boxes can serve as hotspots to recruit other proteins, including the REV1 translesion synthesis polymerase and the MLH1 mismatch repair protein [54, 55, 56, 64]. To test if the PIP-like motif in FANCJ functions as a PIP or an REV1-interacting region (RIR), we compared how this peptide bound to PCNA versus REV1 by BLI. Recombinant human PCNA protein and the C-terminal domain (CTD) of human REV1 were purified from E. coli (Figure S3A). Biotinylated FANCJ PIP was immobilized on a streptavidin-coated biosensor and experiments were performed as described above. […]

bioFANCJ PIP AA (human) = assay: BLI; 150 nM biotinylated FANCJ PIP or PIP AA peptide loaded on streptavidin biosensors (BLItz); REV1 CTD (1.8 uM) or PCNA trimer (1.3 uM) as analyte, also as a function of analyte concentration; Buffer H (20 mM HEPES pH 7.5, 150 mM KCl, 5 mM TCEP, 5% glycerol), 25 C; plateau values fit to a 1:1 model
[4] = biological target: T1, full-length human PCNA protein (human, UniProt P12004 1-261); assay: as above; settings: both partners purified
T1 construct: PCNA sliding clamp, human, full length; made from plasmid pEB022; also called PCNA trimer; source: E. coli NiCo21(DE3), purified (Ni2+ IMAC, heparin)
T1 sequence (P12004 whole entry): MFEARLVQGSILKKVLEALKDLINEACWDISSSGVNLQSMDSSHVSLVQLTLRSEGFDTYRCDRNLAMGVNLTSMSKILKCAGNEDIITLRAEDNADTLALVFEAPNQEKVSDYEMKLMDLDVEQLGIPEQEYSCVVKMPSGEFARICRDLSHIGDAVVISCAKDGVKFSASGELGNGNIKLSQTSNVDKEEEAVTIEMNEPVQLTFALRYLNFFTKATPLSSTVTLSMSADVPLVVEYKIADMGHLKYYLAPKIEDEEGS

[5] = biological target: T2, human REV1 CTD (amino acid residues 1157 to 1251) (human, UniProt Q9UBZ9 1157-1251); assay: as above; settings: both partners purified
T2 construct: REV1 translesion DNA synthesis polymerase, human, C-terminal domain, residues 1157-1251; codon-optimized construct; also called C-terminal domain (CTD) of human REV1; source: E. coli NiCo21(DE3), purified (Ni2+ IMAC, heparin)
T2 sequence (looked up): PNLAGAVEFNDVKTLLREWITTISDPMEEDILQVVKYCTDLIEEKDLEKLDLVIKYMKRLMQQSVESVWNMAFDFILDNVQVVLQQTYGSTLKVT

[6] = BLI isotherms, PIP AA versus wild-type PIP
[7] = biotinylated peptide 150 nM, 1.8 µM REV1 CTD

Molecule: (TTAGGG)4: human telomeric G4 DNA, TTAGGGTTAGGGTTAGGGTTAGGG
G4 conformation by CD (KCl) [1]: folded into a hybrid conformation | G4 conformation by CD (NaCl) [2]: adopted an anti-parallel configuration in NaCl buffer

Molecule: Biotin-SWSSFNSLGQAATGKIP [FANCJ PIP AA, Biotin-…, YF replaced with AA]
Change in affinity for REV1 CTD by PIP AA mutation [3, 6]: small increase in affinity for REV1 CTD | BLI binding signal (Δλ), REV1 CTD versus PCNA [3, 7]: more REV1 CTD bound to the mutant peptide versus PCNA | BLI binding signal, PIP AA versus wild-type PIP, REV1 CTD [3, 7]: larger binding signals compared to the wild-type PIP sequence for REV1 CTD | Change in affinity (binding constant) for PCNA by PIP AA mutation (full-length human PCNA; [6]): binding of PCNA was weakened twofold; also recorded: reduced the binding constant for PCNA by half | Binding to PCNA (full-length human PCNA): still retained residual interactions with PCNA | BLI binding signal, PIP AA versus wild-type PIP, PCNA (full-length human PCNA; biotinylated peptide 150 nM, 1.3 µM PCNA trimer): larger binding signals compared to the wild-type PIP sequence

Now from value to molecule, other results behind:

Binding to REV1 CTD ([3]; BLI): bound to REV1 CTD | Binding to PCNA (full-length human PCNA): bound to REV1 CTD and to PCNA
Molecule: Biotin-SWSSFNSLGQYFTGKIP [FANCJ PIP, Biotin-…, FANCJ amino acids 1001–1017]
BLI binding signal (Δλ), REV1 CTD versus PCNA [3, 7]: REV1 CTD produced a larger binding signal than PCNA at similar molar concentrations of protein; also recorded: Interactions with REV1 CTD, however, produced a stronger binding signal than PCNA

fold weakening of the equilibrium constant against wild-type FANCJ PIP (bioFANCJ PIP AA (human)): 2 fold
Molecule: full-length human PCNA protein (from UniProt P12004 1-261)

binding result [4]: binds | binding result [5]: binds
B1: bioFANCJ PIP (peptide)
peptide: Biotin-SWSSFNSLGQYFTGKIP
notes: FANCJ helicase, human, PIP-like motif, amino acids 1001-1017; Held on streptavidin biosensors by the N-terminal biotin; also called biotinylated FANCJ PIP; wild-type PIP; source: synthetic peptide (Genscript)
